Reference: US8211445B2, “PSM peptides as vaccine targets against methicillin-resistant Staphylococcus” (The United States of America, as represented by the …, priority 2007, dated 2012)

Test system: human neutrophils
Assay: Scanning electron microscopy of neutrophils exposed to PSMα3
Assay type: cell-based
Conditions: PSMα3 10 μg/ml
Procedure: FIG. 4 includes several panels showing PSM-induced lysis of human neutrophils. FIG. 4A is a graph showing human neutrophil lysis, measured by release of lactate dehydrogenase (LDH) activity, with synthetic PSM peptides at 10 μg/ml. FIG. 4B is a graph showing human neutrophil lysis, measured by release of LDH activity, with culture filtrates of wild-type, PSM gene deletion and complemented CA- and HA-MRSA strains. Data represent means±SEM of at least three independent measurements. FIG. 4C is a series of digital images showing in vitro lysis of human neutrophils with synthetic PSMα3. Neutrophils were incubated with PSMα3 (10 μg/ml) and observed by scanning electron microscopy at the time intervals indicated, in comparison to untreated controls. […] The peak at ˜190 nm is indicative of α-helicity. […] FIG. 4F is a pair of graphs showing the infiltration and killing of […] leukocytes in a murine peritonitis model. Two hours after infection with the bacteria, neutrophils and monocytes were counted in peritoneal exudates, and dead and live cells were distinguished, using flow cytometry. The number of mice was n=5 for all samples except n=4 for MW2 samples (the results from one mouse in the MW2 wild-type and PSMα deletion strain samples were not included because of extensive bleeding). […]

fMEFVAKLFKFFKDLLGKFLGNN [PSMα3]
state of neutrophils after 60 minutes: many neutrophils were completely destroyed
time of exposure until signs of priming and compromised integrity of the plasma membrane: ≤ 5 min
